Drawing on PubChem BioAssay (NCI), this text covers TGI and GI50 for 16 compounds.

Test systems include SNB-75 CNS; COLO 205 colon; RPMI-8226 leukemia; HT29 colon; CCRF-CEM leukemia; SK-MEL-2 melanoma; KM12 colon; SW-620 colon; DU-145 prostate; MDA-MB-231 breast.
Holding throughout (assay): NCI anticancer screen, dose series, 48 h

SMILES strings stand for the structures. Values joined by “and” are separate entries in the source; they are usually repeats but may differ in a detail not shown here. Equal entries are not always repeated.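 Compound exposure: 48 hours, 5 concentrations, 96-well plates. At the GI50, growth is halved. TGI marks complete inhibition of growth.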 Some results are limits rather than exact numbers.

For the compound `COC(=O)C1C2CC3C(OC(=O)C31)C2OC(=O)[C@](OC)(c1ccccc1)C(F)(F)F` (stereo partly drawn), the TGI in the experiment on SNB-75 CNS, with COLO 205 colon, in the experiment with RPMI-8226 leukemia, with HT29 colon, in the experiment on CCRF-CEM leukemia and in the experiment with SK-MEL-2 melanoma was more than 100 µM throughout. Moreover, the TGI in the experiment on KM12 colon and in the experiment on SW-620 colon was more than 100 µM in each case.
Consider `O=C1NC2(C=Cc3c(ccc4ccccc34)O2)Oc2ccccc21` (stereo not drawn), for which the TGI in the experiment with SNB-75 CNS was found to be 61.4 µM; with COLO 205 colon, 42.5 µM; in the experiment with RPMI-8226 leukemia, 47.6 µM; in the experiment with HT29 colon it was 30.3 µM; with CCRF-CEM leukemia it was 32.1 µM; with SK-MEL-2 melanoma it was 56.5 µM. Further, the TGI in the experiment on KM12 colon was 41.1 µM; with SW-620 colon it was more than 100 µM.
Turning to `CC1CC[C@@]2(OC1)OC1C[C@H]3[C@@H]4CCC5CC(O)CC[C@]5(C)[C@H]4C/C(=N\N(C)C)[C@]3(C)C1[C@@H]2C` (stereo partly drawn), the TGI in the experiment with DU-145 prostate was 60.1 µM; with MDA-MB-231 breast, 50.2 µM; in the experiment on COLO 205 colon, 45 µM; in the experiment on RPMI-8226 leukemia, more than 100 µM; in the experiment with HT29 colon, 39.9 µM; in the experiment with CCRF-CEM leukemia it was more than 100 µM. Also, the results for the TGI with SK-MEL-2 melanoma, in the experiment on KM12 colon and in the experiment with SW-620 colon were 45.6 µM, 85.2 µM and more than 100 µM, respectively.
As for `COc1ccccc1N=C1SCCN1C(=S)Nc1ccc(S(=O)(=O)/N=C/N(C)C)cc1`, the TGI with DU-145 prostate is more than 100 µM; in the experiment on SNB-75 CNS, 98.4 µM; in the experiment with MDA-MB-231 breast, more than 100 µM; with COLO 205 colon, more than 100 µM; with RPMI-8226 leukemia, 68.4 µM; in the experiment with CCRF-CEM leukemia, more than 100 µM. For the same compound, the TGI with KM12 colon and in the experiment on SW-620 colon was more than 100 µM each time.
Take `O=C(NN=C1CCCCC1)NN=C1CCCCC1`: the TGI in the experiment with DU-145 prostate, in the experiment on SNB-75 CNS, with MDA-MB-231 breast, in the experiment with COLO 205 colon, with HT29 colon and in the experiment on CCRF-CEM leukemia was more than 100 µM in each case. The TGI in the experiment with KM12 colon and in the experiment on SW-620 colon was more than 100 µM in each case.
Take `CC(/C=N/NC1=NCCCN1)=N\NC1=NCCCN1`: the TGI in the experiment on SNB-75 CNS, in the experiment on MDA-MB-231 breast, in the experiment on COLO 205 colon, in the experiment with RPMI-8226 leukemia, in the experiment with HT29 colon and in the experiment with CCRF-CEM leukemia was more than 100 µM each time. Moreover, the TGI with KM12 colon and in the experiment with SW-620 colon was more than 100 µM in each case.
Turning to `c1ccc(C2[C@@H]3CCCc4ccccc4C3=NN2c2ccccc2)cc1` (stereo partly drawn), the TGI in the experiment on COLO 205 colon, in the experiment with RPMI-8226 leukemia, with HT29 colon, with CCRF-CEM leukemia, in the experiment with KM12 colon and in the experiment on SW-620 colon was more than 100 µM throughout.
`CC(C)c1cccc(C(C)C)c1OS(=O)(=O)NC(=O)OC(C(F)(F)F)C(F)(F)F`: the TGI is more than 100 µM in the experiment on DU-145 prostate; more than 100 µM in the experiment with MDA-MB-231 breast; more than 100 µM in the experiment with COLO 205 colon; 44.8 µM with RPMI-8226 leukemia; more than 100 µM in the experiment with CCRF-CEM leukemia; more than 100 µM with SK-MEL-2 melanoma. Besides, the TGI with KM12 colon and with SW-620 colon was more than 100 µM each time.
Regarding `COc1ccc2[nH]c(O)c(/C=c3/cc4c(c(-c5ccc(F)cc5)n3)=Nc3ccccc3-4)c2c1`, the GI50 was 2970 nM in the experiment with DU-145 prostate; 13 µM in the experiment with SNB-75 CNS; 1200 nM with MDA-MB-231 breast; 3.73 µM with RPMI-8226 leukemia; 1940 nM with HT29 colon; 12.6 µM in the experiment with SK-MEL-2 melanoma. Further, the GI50 in the experiment with KM12 colon is 1780 nM; in the experiment with SW-620 colon, 1850 nM. The TGI in the experiment on DU-145 prostate worked out at 7.96 µM; with SNB-75 CNS it was 27.4 µM; with MDA-MB-231 breast, 3.87 µM; in the experiment on RPMI-8226 leukemia it was 32.9 µM; in the experiment on HT29 colon it was 3.85 µM; in the experiment on SK-MEL-2 melanoma, 30.7 µM. The TGI with KM12 colon worked out at 4.46 µM; in the experiment with SW-620 colon, 3.89 µM.
For `COC(=O)C(Cc1nc2ccccc2[nH]c1=O)C(=O)C(=O)Nc1cc(C(F)(F)F)ccc1Cl` (stereo not drawn), the TGI is 46.1 µM in the experiment on SNB-75 CNS; 52.5 µM in the experiment on MDA-MB-231 breast; 51.5 µM in the experiment with RPMI-8226 leukemia; 28.6 µM in the experiment on HT29 colon; 48.2 µM with CCRF-CEM leukemia; 34.9 µM in the experiment on SK-MEL-2 melanoma. Moreover, the TGI is 28.3 µM in the experiment with KM12 colon and more than 100 µM with SW-620 colon.
As for `CC(=O)CC(=O)/C=C/c1cccs1`, the TGI in the experiment with COLO 205 colon, with RPMI-8226 leukemia, in the experiment with HT29 colon, with CCRF-CEM leukemia, in the experiment on SK-MEL-2 melanoma and in the experiment on KM12 colon was more than 100 µM in each case. Also, the TGI with SW-620 colon was more than 100 µM.
Turning to `CC(=O)n1ccc2c(Cl)ncnc21`, the TGI in the experiment with SNB-75 CNS, with COLO 205 colon, with RPMI-8226 leukemia, in the experiment on HT29 colon, with CCRF-CEM leukemia and in the experiment with SK-MEL-2 melanoma was more than 100 µM throughout. The TGI in the experiment with KM12 colon and in the experiment on SW-620 colon was more than 100 µM in each case.
Take `c1ccc(CCn2cncn2)cc1`: the TGI with SNB-75 CNS, with COLO 205 colon, in the experiment on HT29 colon, in the experiment with CCRF-CEM leukemia, in the experiment with KM12 colon and in the experiment on SW-620 colon was more than 100 µM in each case.
For `Brc1cccc[n+]1-c1ccc2cc(-[n+]3ccccc3Br)ccc2c1`, the TGI in the experiment on DU-145 prostate is 35.5 µM; in the experiment with MDA-MB-231 breast, 85.6 µM; in the experiment with COLO 205 colon, more than 100 µM; with RPMI-8226 leukemia, 63.8 µM; in the experiment on HT29 colon, more than 100 µM; in the experiment on CCRF-CEM leukemia it was more than 100 µM. Also, the TGI in the experiment on SK-MEL-2 melanoma is more than 100 µM; with KM12 colon it was 40 µM; with SW-620 colon, more than 100 µM.
For the compound `COC[C@@H](Cc1ccc(OC)c(OC)c1)[C@@H](COC)Cc1ccc(OC)c(OC)c1`, the TGI in the experiment on SNB-75 CNS, with COLO 205 colon, in the experiment on HT29 colon, in the experiment on CCRF-CEM leukemia, in the experiment with SK-MEL-2 melanoma and in the experiment on KM12 colon was more than 100 µM each time. For the same compound, in the experiment with SW-620 colon, the TGI is more than 100 µM.
As for `CCC1(O)CC(OC2CC(N(C)C)C(OC3CC(O)C(OC4CCC(=O)C(C)O4)C(C)O3)C(C)O2)c2c(O)c3c(c(O)c2C1C(=O)OC)C(=O)c1cccc(O)c1C3=O` (stereo not drawn), the TGI in the experiment with DU-145 prostate was 0.124 µM; in the experiment on MDA-MB-231 breast it was 0.28 µM and 0.229 µM; with COLO 205 colon it was 0.124 µM; in the experiment on RPMI-8226 leukemia it was 0.0755 µM; in the experiment on HT29 colon, 0.103 µM and 0.0147 µM; with CCRF-CEM leukemia, 0.0328 µM. The TGI with SK-MEL-2 melanoma was 0.0247 µM; in the experiment on KM12 colon it was 1.28 µM; with SW-620 colon it was 0.0394 µM.
